Measured values reported in patent US8575183B2, “Heterocyclic compounds and their uses” (priority 2010, dated 2013).
Where “and” joins values, the source holds several entries; their conditions need not be identical. Equal entries are not always repeated. Where two headings read alike, the source gives them in different places.

Legend:
[1] = system: Class I PI3 kinase isoforms; details: cited from earlier work
P110β = P110β (Homo sapiens, UniProt P42338); details: cited from earlier work
[2] = system: mouse model of rheumatoid arthritis; details: in vivo; cited from earlier work
[3] = system: model of systemic lupus erythematosis; details: in vivo; cited from earlier work
PI3k δ = molecular target: T1, PI3k δ (Homo sapiens, UniProt O00329); experiment: biochemical; assay type: biochemical
T1 construct: Full length p110 subunits of PI3k α, β and δ; polyHis (N); made in house; host or cells: Sf9 insect cells (baculovirus)
Description: Full length p110 subunits of PI3k α, β and δ, N-terminally labeled with polyHis tag, were coexpressed with p85 with Baculo virus expression vectors in sf9 insect cells. P110/p85 heterodimers were purified by sequential Ni-NTA, Q-HP, Superdex-100 chromatography. Purified α, β and δ isozymes were stored at −20° C. in 20 mM Tris, pH 8, 0.2M NaCl, 50% glycerol, 5 mM DTT, 2 mM Na cholate. […] The γ isozyme was purified by sequential Ni-NTA, Superdex-200, Q-HP chromatography. The γ isozyme was stored frozen at −80° C. in NaH2PO4, pH 8, 0.2M NaCl, 1% ethylene glycol, 2 mM β-mercaptoethanol.
Phospatidyl inositol phosphoacceptor, Ptdlns(4,5)P2 P4508, was from Echelon Biosciences. […] Test compounds were dissolved in dimethyl sulfoxide and diluted with three-fold serial dilutions. The compound in DMSO (1 μL) was added per test well, and the inhibition relative to reactions containing no compound, with and without enzyme was determined. After assay incubation at rt, the reaction was stopped and residual ATP determined by addition of an equal volume of a commercial ATP bioluminescence kit (Perkin Elmer EasyLite) according to the manufacturer's instructions, and detected using a AnalystGT luminometer.

p110δ = p110δ (Homo sapiens, UniProt O00329); details: cited from earlier work
murine model of asthma = details: ovalbumin-induced airway inflammation; cited from earlier work
protein kinases = details: cited from earlier work

T1 sequence (O00329 whole entry): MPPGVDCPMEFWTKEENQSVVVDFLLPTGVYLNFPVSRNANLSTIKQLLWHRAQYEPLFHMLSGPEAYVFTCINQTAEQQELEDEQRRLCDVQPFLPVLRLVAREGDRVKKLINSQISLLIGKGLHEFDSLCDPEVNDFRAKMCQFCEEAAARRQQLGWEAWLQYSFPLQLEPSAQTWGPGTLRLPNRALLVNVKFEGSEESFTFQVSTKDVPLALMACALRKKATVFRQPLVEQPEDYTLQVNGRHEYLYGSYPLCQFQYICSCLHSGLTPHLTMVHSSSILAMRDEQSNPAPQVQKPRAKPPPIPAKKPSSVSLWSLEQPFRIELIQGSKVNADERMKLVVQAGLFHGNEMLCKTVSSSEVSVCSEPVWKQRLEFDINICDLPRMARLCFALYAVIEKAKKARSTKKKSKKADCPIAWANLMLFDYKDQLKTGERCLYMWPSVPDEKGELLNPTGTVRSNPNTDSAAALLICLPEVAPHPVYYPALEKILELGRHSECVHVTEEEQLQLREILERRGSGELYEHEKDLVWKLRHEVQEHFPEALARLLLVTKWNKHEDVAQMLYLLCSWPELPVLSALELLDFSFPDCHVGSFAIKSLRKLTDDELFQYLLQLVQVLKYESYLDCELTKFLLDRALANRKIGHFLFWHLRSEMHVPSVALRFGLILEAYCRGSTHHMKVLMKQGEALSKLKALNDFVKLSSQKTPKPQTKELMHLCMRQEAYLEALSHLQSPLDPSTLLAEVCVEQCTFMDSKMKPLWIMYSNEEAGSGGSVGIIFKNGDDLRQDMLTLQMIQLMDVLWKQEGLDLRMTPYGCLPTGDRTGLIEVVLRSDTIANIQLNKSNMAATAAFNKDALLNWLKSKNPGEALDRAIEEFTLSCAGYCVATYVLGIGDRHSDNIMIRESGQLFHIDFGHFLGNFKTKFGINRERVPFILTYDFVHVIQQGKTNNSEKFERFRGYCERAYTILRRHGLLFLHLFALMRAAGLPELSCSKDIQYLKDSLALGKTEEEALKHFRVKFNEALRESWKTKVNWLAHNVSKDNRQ
T1 sequence (P27986 whole entry partner): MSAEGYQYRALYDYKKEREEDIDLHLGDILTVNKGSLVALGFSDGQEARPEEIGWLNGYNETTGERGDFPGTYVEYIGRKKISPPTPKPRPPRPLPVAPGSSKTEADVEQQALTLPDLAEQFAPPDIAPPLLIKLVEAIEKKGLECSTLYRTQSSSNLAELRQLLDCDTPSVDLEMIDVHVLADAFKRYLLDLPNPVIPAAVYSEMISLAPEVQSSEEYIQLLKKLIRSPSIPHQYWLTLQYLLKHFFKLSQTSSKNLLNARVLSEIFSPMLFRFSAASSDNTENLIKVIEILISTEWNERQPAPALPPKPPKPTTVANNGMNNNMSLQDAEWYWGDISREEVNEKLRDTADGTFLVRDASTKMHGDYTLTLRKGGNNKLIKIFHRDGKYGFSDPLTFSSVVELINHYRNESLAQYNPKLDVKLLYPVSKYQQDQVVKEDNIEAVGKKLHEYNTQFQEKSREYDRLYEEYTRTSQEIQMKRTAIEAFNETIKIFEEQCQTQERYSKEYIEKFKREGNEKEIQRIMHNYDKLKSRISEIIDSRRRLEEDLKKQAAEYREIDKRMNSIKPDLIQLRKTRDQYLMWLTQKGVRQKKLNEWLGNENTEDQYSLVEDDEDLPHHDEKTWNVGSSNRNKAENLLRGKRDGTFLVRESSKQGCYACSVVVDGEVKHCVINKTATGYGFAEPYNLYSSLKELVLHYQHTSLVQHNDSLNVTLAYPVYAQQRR
P110β, sequence (P42338 whole entry): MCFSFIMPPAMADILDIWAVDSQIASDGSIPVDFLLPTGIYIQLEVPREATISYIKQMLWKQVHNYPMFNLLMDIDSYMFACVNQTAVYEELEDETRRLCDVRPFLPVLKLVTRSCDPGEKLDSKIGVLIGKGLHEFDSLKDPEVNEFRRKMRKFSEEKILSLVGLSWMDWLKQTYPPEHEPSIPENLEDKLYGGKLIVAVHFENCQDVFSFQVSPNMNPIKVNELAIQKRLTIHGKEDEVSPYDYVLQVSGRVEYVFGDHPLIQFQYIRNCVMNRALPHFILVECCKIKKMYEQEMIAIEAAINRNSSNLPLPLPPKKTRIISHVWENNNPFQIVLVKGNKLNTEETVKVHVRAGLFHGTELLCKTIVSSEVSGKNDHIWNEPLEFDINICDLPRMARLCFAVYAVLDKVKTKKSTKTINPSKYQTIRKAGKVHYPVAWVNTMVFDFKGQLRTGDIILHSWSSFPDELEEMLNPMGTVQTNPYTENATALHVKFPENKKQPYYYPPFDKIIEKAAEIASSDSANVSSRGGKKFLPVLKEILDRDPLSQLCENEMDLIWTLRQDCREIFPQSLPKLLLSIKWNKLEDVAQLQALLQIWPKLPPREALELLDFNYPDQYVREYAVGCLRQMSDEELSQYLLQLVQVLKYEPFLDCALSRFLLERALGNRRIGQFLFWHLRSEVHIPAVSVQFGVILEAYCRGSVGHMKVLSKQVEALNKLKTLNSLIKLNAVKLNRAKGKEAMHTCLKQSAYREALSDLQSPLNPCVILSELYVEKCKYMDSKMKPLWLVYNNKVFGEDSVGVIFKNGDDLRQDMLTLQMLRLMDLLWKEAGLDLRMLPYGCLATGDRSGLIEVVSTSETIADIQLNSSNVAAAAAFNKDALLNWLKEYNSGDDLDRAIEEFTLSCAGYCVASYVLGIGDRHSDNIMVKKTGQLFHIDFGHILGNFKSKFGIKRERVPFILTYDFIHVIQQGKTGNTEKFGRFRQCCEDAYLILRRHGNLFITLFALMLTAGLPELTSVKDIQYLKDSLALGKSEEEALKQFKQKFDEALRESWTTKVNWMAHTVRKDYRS
P110β, sequence (P27986 whole entry partner): as the sequence (P27986 whole entry partner) above
p110δ, sequence (O00329 whole entry): as the sequence (O00329 whole entry) above
p110δ, sequence (P27986 whole entry partner): as the sequence (P27986 whole entry partner) above

Row | SMILES | Ki (PI3k δ; read-out: PI3k δ Ki) | other results
1 | Cc1cc(C(C)Nc2ccccc2)c2nc(N3CCOCC3)cc(=O)n2c1 (stereo not shown) [TGX-221] | – | selectivity over delta ([1]; beta over delta): 14 fold; selectivity over gamma and alpha ([1]; beta over gamma and alpha): more than 500 fold; potency on beta (P110β): 7 nM
2 | O=C1NC(=O)/C(=C\c2ccc3nccnc3c2)S1 [AS 605240] | – | efficacy in a mouse model of rheumatoid arthritis [2]: efficacious; onset of disease in a model of systemic lupus erythematosis [3]: delay onset of disease
3 | C[C@H](Nc1ncnc(N)c1C#N)c1nc2cccnn2c1-c1ccccn1 [4-amino-6-(((1S)-1-(3-(2-pyridinyl)imidazo[1,2-b]pyridazin-2-yl)ethyl)amino)-5-pyrimidinecarbonitrile] | 2010 nM | –
4 | CC[C@H](Nc1ncnc2[nH]cnc12)c1nc2cccc(C(F)(F)F)c2n1CC1CC1 [N-((1S)-1-(1-(cyclopropylmethyl)-7-(trifluoromethyl)-1H-benzimidazol-2-yl)propyl)-9H-purin-6-amine] | 100 nM | –
5 | COC(=O)c1cccc2nc([C@H](C)Nc3ncnc(N)c3C#N)c(-c3cccnc3)n12 [methyl 2-((1S)-1-((6-amino-5-cyano-4-pyrimidinyl)amino)ethyl)-3-(3-pyridinyl)imidazo[1,2-a]pyridine-5-carboxylate] | 147 nM | –
6 | CC[C@H](Nc1ncnc(N)c1C#N)c1nc2cccc(C(=O)NC)c2n1C1CC1 [2-((1S)-1-((6-amino-5-cyano-4-pyrimidinyl)amino)propyl)-1-cyclopropyl-N-methyl-1H-benzimidazole-7-carboxamide] | 39 nM | –
7 | C[C@H](Nc1ncnc(N)c1C#N)c1nc2cccc(S(C)(=O)=O)c2[nH]1 [4-amino-6-(((1S)-1-(7-(methylsulfonyl)-1H-benzimidazol-2-yl)ethyl)amino)-5-pyrimidinecarbonitrile] | 45.5 nM | –
8 | Cc1ccccc1-n1c(Cn2cnc3c(N)ncnc32)nc2cccc(C)c2c1=O [IC87114] | – | inhibition of p110δ (p110δ): high nanomolar range (triple digit); inflammation and disease in a murine model of asthma (murine model of asthma): significantly ameliorate inflammation and disease; activity against any protein kinases tested (protein kinases): no activity
9 | C[C@H](Nc1ncnc(N)c1C#N)c1nc2cc(F)ccc2n1CC1CC1 [4-amino-6-(((1S)-1-(1-(cyclopropylmethyl)-5-fluoro-1H-benzimidazol-2-yl)ethyl)amino)-5-pyrimidinecarbonitrile] | 6 nM and 25.8 nM | –
10 | C[C@H](Nc1ncnc(N)c1C#N)c1nc2cc(F)ccc2n1-c1cncc(F)c1 [4-amino-6-(((1S)-1-(5-fluoro-1-(5-fluoro-3-pyridinyl)-1H-benzimidazol-2-yl)ethyl)amino)-5-pyrimidinecarbonitrile] | 96.4 nM | –
11 | C[C@H](Nc1ncnc(N)c1C#N)c1nc2cccc(C(=O)NC3CC3)n2c1-c1ccccc1 [2-((1S)-1-((6-amino-5-cyano-4-pyrimidinyl)amino)ethyl)-N-cyclopropyl-3-phenylimidazo[1,2-a]pyridine-5-carboxamide] | 17.4 nM | –
12 | C[C@H](Nc1ncnc(N)c1C#N)c1nc2cccc(S(C)(=O)=O)c2n1C1CC1 [4-amino-6-(((1S)-1-(1-cyclopropyl-7-(methylsulfonyl)-1H-benzimidazol-2-yl)ethyl)amino)-5-pyrimidinecarbonitrile] | 2.83 nM | –
13 | C[C@H](Nc1ncnc(N)c1C#N)c1nc2cccnc2n1-c1cc(F)cc(F)c1 [4-amino-6-(((1S)-1-(3-(3,5-difluorophenyl)-3H-imidazo[4,5-b]pyridin-2-yl)ethyl)amino)-5-pyrimidinecarbonitrile] | 138 nM | –
14 | CNC(=O)c1cccc(-n2c([C@H](C)Nc3ncnc(N)c3C#N)nc3ccc(F)cc32)c1 [3-(2-((1S)-1-((6-amino-5-cyano-4-pyrimidinyl)amino)ethyl)-6-fluoro-1H-benzimidazol-1-yl)-N-methylbenzamide] | 18.3 nM | –
15 | CNC(=O)c1cccc2nc([C@H](C)Nc3ncnc(N)c3C(F)(F)F)n(C3CC3)c12 [2-((1S)-1-((6-amino-5-(trifluoromethyl)-4-pyrimidinyl)amino)ethyl)-1-cyclopropyl-N-methyl-1H-benzimidazole-7-carboxamide] | 37 nM | –
16 | C[C@H](Nc1ncnc(N)c1C#N)c1nc2ccc(F)cc2n1-c1cccc(C#N)c1 [4-amino-6-(((1S)-1-(1-(3-cyanophenyl)-6-fluoro-1H-benzimidazol-2-yl)ethyl)amino)-5-pyrimidinecarbonitrile] | 18.8 nM | –
17 | C[C@@H](Nc1ncnc(N)c1C#N)c1nc2c(F)cc(F)cc2n1-c1cccnc1 [4-amino-6-(((1R)-1-(4,6-difluoro-1-(3-pyridinyl)-1H-benzimidazol-2-yl)ethyl)amino)-5-pyrimidinecarbonitrile] | 1290 nM | –
18 | CSc1cccc(-n2c([C@H](C)Nc3ncnc(N)c3C#N)nc3cc(F)ccc32)c1 [4-amino-6-(((1S)-1-(5-fluoro-1-(3-(methylsulfanyl)phenyl)-1H-benzimidazol-2-yl)ethyl)amino)-5-pyrimidinecarbonitrile] | 44.1 nM | –
19 | C[C@H](Nc1ncnc(N)c1C#N)c1nc2cccc(F)c2[nH]1 [4-amino-6-(((1S)-1-(7-fluoro-1H-benzimidazol-2-yl)ethyl)amino)-5-pyrimidinecarbonitrile] | 173 nM | –
20 | C[C@@H](Nc1ncnc(N)c1C#N)c1nc2ccc(F)cc2n1-c1cncc(-c2ccccn2)c1 [4-amino-6-(((1R)-1-(1-(2,3′-bipyridin-5′-yl)-6-fluoro-1H-benzimidazol-2-yl)ethyl)amino)-5-pyrimidinecarbonitrile] | – | Ki (PI3k δ): 1190 nM
21 | CNC(=O)c1cccc2nc([C@H](C)Nc3ncnc4[nH]cnc34)n(C3CC3)c12 [1-cyclopropyl-N-methyl-2-((1S)-1-(9H-purin-6-ylamino)ethyl)-1H-benzimidazole-7-carboxamide] | 14.6 nM | –
22 | C[C@H](Nc1ncnc(N)c1C#N)c1nc2cc(F)c(F)cc2n1-c1cncc(F)c1 [4-amino-6-(((1S)-1-(5,6-difluoro-1-(5-fluoro-3-pyridinyl)-1H-benzimidazol-2-yl)ethyl)amino)-5-pyrimidinecarbonitrile] | 57.5 nM | –
23 | C[C@H](Nc1ncnc(N)c1C#N)c1nc2c(S(C)(=O)=O)cccc2n1C1CCCC1 [4-amino-6-(((1S)-1-(1-cyclopentyl-4-(methylsulfonyl)-1H-benzimidazol-2-yl)ethyl)amino)-5-pyrimidinecarbonitrile] | 1440 nM | –
